Source: US12503444B2, “Compound containing benzene ring and application thereof” (WUHAN LL SCIENCE AND TECHNOLOGY DEVELOPMENT CO., LTD., priority 2019, dated 2025)
Where two headings read alike, the source gives them in different places.

Molecular target: T1, hP2X4 (human purinergic P2X receptor subtype 4) (Homo sapiens, UniProt Q99571)
T1 sequence (Q99571 1-404 isoform Q99571-2): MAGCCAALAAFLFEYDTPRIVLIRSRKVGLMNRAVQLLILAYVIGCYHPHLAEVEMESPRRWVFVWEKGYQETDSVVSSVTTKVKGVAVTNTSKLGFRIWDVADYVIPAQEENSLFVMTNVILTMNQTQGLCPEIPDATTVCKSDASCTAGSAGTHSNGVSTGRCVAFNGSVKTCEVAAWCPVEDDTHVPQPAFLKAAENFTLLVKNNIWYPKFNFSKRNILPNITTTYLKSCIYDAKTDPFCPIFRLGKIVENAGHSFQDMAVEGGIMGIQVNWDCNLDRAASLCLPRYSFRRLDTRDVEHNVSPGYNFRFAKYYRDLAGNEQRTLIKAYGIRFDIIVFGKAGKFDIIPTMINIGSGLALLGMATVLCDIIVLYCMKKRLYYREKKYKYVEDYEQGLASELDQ
Test: FLIPR assay of intracellular calcium increase induced by activation of hP2X4 expressed in HEK293 cells (agonist BZ-ATP 2.5 μM)
Format: cell-based
Settings: HEK293 cells stably expressing hP2X4, FLIPR, read-out: P2X4 IC50
Protocol: The antagonist property of the compounds disclosed herein was determined using the FLIPR (fluorescence imaging plate reader) method, wherein the compounds are inhibitors for the intracellular calcium increase induced by activation of hP2X4 (human purinergic P2X receptor subtype 4, accession No. NM_001256796.2) expressed in HEK293 cells (human renal epithelial cell line, ATCC).
HEK293 cells stably expressing hP2X4 were cultured in DMEM high glucose medium containing 10% FBS (fetal bovine serum, Biosera, FB-1058/500), 1% penicillin-streptomycin (Gibco, 15140-122) and 1 mg/mL G418 (CABIOCHE, 345810) in a cell incubator (37° C., […]). Cells at 400,000 cells/mL were seeded into a 384-well plate (10,000 cells/well) 18-24 h prior to the FLIPR experiment and then incubated overnight in a cell incubator. On the day of the experiment, the medium was discarded and the cells were washed in an FLIPR buffer (0.3 mL of probenecid (Thermo, P36400), 0.6 mL of 1 M HEPES (Invitrogen, 15630080) and 29.1 mL of HBSS (Invitrogen, 14065056) per 30 mL of the buffer). Each well was added with 20 μL of 0.5× Calcium 6 fluorescent dye (Molecular Devices, R8190) and then the cells were subjected to dye-loading incubation at 37° C. for 1.5 h. Each well was added with 10 μL of respective test compound (dissolved in DMSO at a concentration of 10 mM and serially diluted with buffer) or vehicle and the mixture was equilibrated for 30 min at room temperature. The cell plate was then placed in the FLIPR for baseline fluorescence measurements (excitation at 485 nm and emission at 525-535 nm). An agonist (BZ-ATP (Sigma, B6396) at a final concentration of 2.5 μM) or a vehicle (ultrapure water) was then added at 10 μL/well, fluorescence values were measured for 2 min at 1-second intervals, and finally the output fluorescence counts were analyzed.

Row | IC50 (class symbols) [µM] | IC50 (numeric values) [µM] | Molecule
1 | ≤ 0.01 | – | CCn1cc2c(S(N)(=O)=O)cc(NC(=O)Cc3ccccc3Cl)cc2n1 [Compound 4-A, (4-sulfonamide-6-N-(2-chlorophenylacetyl)-2-ethyl)-indazole]
2 | – | 0.00116 | CC(C)n1cc2c(S(N)(=O)=O)cc(NC(=O)Cc3ccccc3Cl)cc2n1 [Compound 6-A, 2-(2-chlorophenyl)-N-(2-isopropyl-4-sulfamoyl-2H-indazol-6-yl)acetamide]
3 | 0.01 to 0.05 | – | CC(C)n1ncc2c(S(N)(=O)=O)cc(NC(=O)Cc3ccccc3Cl)cc21 [Compound 6-B, 2-(2-chlorophenyl)-N-(1-isopropyl-4-sulfamoyl-1H-indazol-6-yl)acetamide]
4 | ≤ 0.01 | – | CC(C)(C)n1cc2c(S(N)(=O)=O)cc(NC(=O)Cc3ccccc3Cl)cc2n1 [Compound 9, 2-(2-chlorophenyl)-N-(2-(tert-butyl)-4-sulfamoyl-2H-indazol-6-yl)acetamide]
5 | ≤ 0.01 | – | NS(=O)(=O)c1cc(NC(=O)Cc2ccccc2Cl)cc2nn(CCF)cc12 [Compound 11, 2-(2-chlorophenyl)-N-(2-(2-fluoroethyl)-4-sulfamoyl-2H-indazol-6-yl)acetamide]
6 | 0.01 to 0.05 | – | CC(C)(F)n1cc2c(S(N)(=O)=O)cc(NC(=O)Cc3ccccc3Cl)cc2n1 [Compound 13, 2-(2-chlorophenyl)-N-(2-(2-fluoropropan-2-yl)-4-sulfamoyl-2H-indazol-6-yl)acetamide]
7 | ≤ 0.01 | – | C=CCn1cc2c(S(N)(=O)=O)cc(NC(=O)Cc3ccccc3Cl)cc2n1 [Compound 14-A]
8 | – | 0.119 | NS(=O)(=O)c1cc(NC(=O)Cc2ccccc2Cl)cc2nn(CC3CC3)cc12 [Compound 15-A, 2-(2-chlorophenyl)-N-(2-(cyclopropylmethyl)-4-sulfonamido-2H-indazol-6-yl)acetamide]
9 | 0.01 to 0.05 | – | NS(=O)(=O)c1cc(NC(=O)Cc2ccccc2Cl)cc2c1cnn2CC1CC1 [Compound 15-B, 2-(2-chlorophenyl)-N-(1-(cyclopropylmethyl)-4-sulfamoyl-1H-indazol-6-yl)acetamide]
10 | 0.01 to 0.05 | – | NS(=O)(=O)c1cc(NC(=O)Cc2ccccc2Cl)cc2c1cnn2C(=O)C1CC1 [Compound 16-A, 2-(2-chlorophenyl)-N-(1-(cyclopropylcarbonyl)-4-sulfamoyl-1H-indazol-6-yl)acetamide]
11 | ≤ 0.01 | – | NS(=O)(=O)c1cc(NC(=O)Cc2ccccc2Cl)cc2nn(C(=O)C3CC3)cc12 [Compound 16-B, 2-(2-chlorophenyl)-N-(2-(cyclopropylcarbonyl)-4-sulfamoyl-2H-indazol-6-yl)acetamide]
12 | 0.01 to 0.05 | – | CC(C)C1(n2cc3c(S(N)(=O)=O)cc(NC(=O)Cc4ccccc4Cl)cc3n2)CC1 [Compound 17, 2-(2-chlorophenyl)-N-(2-(1-isopropylcyclopropyl)-4-sulfamoyl-2H-indazol-6-yl)acetamide]
13 | 0.01 to 0.05 | – | CCC1(n2cc3c(S(N)(=O)=O)cc(NC(=O)Cc4ccccc4Cl)cc3n2)CC1 [Compound 18, 2-(2-chlorophenyl)-N-(2-(1-ethylcyclopropyl)-4-sulfamoyl-2H-indazol-6-yl)acetamide]
14 | 0.01 to 0.05 | – | NS(=O)(=O)c1cc(NC(=O)Cc2ccccc2Cl)cc2nn(C(F)C3CC3)cc12 (stereo not shown) [Compound 19, 2-(2-chlorophenyl)-N-(2-(cyclopropylfluoromethyl)-4-sulfamoyl-2H-indazol-6-yl)acetamide]
15 | 0.01 to 0.05 | – | NS(=O)(=O)c1cc(NC(=O)Cc2ccccc2Cl)cc2nn(C(F)(F)C3CC3)cc12 [Compound 20, 2-(2-chlorophenyl)-N-(2-(cyclopropyldifluoromethyl)-4-sulfamoyl-2H-indazol-6-yl)acetamide]
16 | 0.01 to 0.05 | – | CC(C)(C1CC1)n1cc2c(S(N)(=O)=O)cc(NC(=O)Cc3ccccc3Cl)cc2n1 [Compound 21, 2-(2-chlorophenyl)-N-(2-(2-cyclopropylpropan-2-yl)-4-sulfamoyl-2H-indazol-6-yl)acetamide]
17 | 0.01 to 0.05 | – | CC1(n2cc3c(S(N)(=O)=O)cc(NC(=O)Cc4ccccc4Cl)cc3n2)CC1 [Compound 22, 2-(2-chlorophenyl)-N-(2-(1-methylcyclopropyl)-4-sulfamoyl-2H-indazol-6-yl)acetamide]

Row | IC50 (class symbols) [µM] | IC50 (numeric values) [µM] | Molecule
18 | 0.01 to 0.05 | – | CC(C)C(F)(F)n1cc2c(S(N)(=O)=O)cc(NC(=O)Cc3ccccc3Cl)cc2n1 [Compound 23, 2-(2-chlorophenyl)-N-(2-(1,1-difluoro-2-methylpropyl)-4-sulfamoyl-2H-indazol-6-yl)acetamide]
19 | 0.01 to 0.05 | – | COCCn1cc2c(S(N)(=O)=O)cc(NC(=O)Cc3ccccc3Cl)cc2n1 [Compound 25, 2-(2-chlorophenyl)-N-(2-(2-methoxyethyl)-4-sulfamoyl-2H-indazol-6-yl)acetamide]
20 | 0.01 to 0.05 | – | COCCn1ncc2c(S(N)(=O)=O)cc(NC(=O)Cc3ccccc3Cl)cc21 [Compound 25A]
21 | 0.2 to 5 | – | CC(C)OCCn1ncc2c(S(N)(=O)=O)cc(NC(=O)Cc3ccccc3Cl)cc21 [Compound 26-B, 2-(2-chlorophenyl)-N-(1-(2-isopropoxyethyl)-4-sulfamoyl-1H-indazol-6-yl)acetamide]
22 | 0.2 to 5 | – | NS(=O)(=O)c1cc(NC(=O)Cc2ccccc2Cl)cc2nn(CCO)cc12 [Compound 27-A, 2-(2-chlorophenyl)-N-(2-(2-hydroxyethyl)-4-sulfamoyl-2H-indazol-6-yl)acetamide]
23 | 0.01 to 0.05 | – | NS(=O)(=O)c1cc(NC(=O)Cc2ccccc2Cl)cc2nn(CCOC3CC3)cc12 [Compound 28, 2-(2-chlorophenyl)-N-(2-(2-cyclopropyloxyethyl)-4-sulfamoyl-2H-indazol-6-yl)acetamide]
24 | 0.01 to 0.05 | – | CC(C)NCCn1cc2c(S(N)(=O)=O)cc(NC(=O)Cc3ccccc3Cl)cc2n1 [Compound 29, 2-(2-chlorophenyl)-N-(2-(2-(isopropylamino)ethyl)-4-sulfamoyl-2H-indazol-6-yl)acetamide]
25 | 0.01 to 0.05 | – | CS(=O)(=O)CCn1cc2c(S(N)(=O)=O)cc(NC(=O)Cc3ccccc3Cl)cc2n1 [Compound 30, 2-(2-chlorophenyl)-N-(2-(2-(methylsulfonyl)ethyl)-4-sulfamoyl-2H-indazol-6-yl)acetamide]
26 | ≤ 0.01 | – | NS(=O)(=O)c1cc(NC(=O)Cc2ccccc2Cl)cc2c1cnn2CC1CCCC1 [Compound 31-B, 2-(2-chlorophenyl)-N-(1-(cyclopentylmethyl)-4-sulfamoyl-1H-indazol-6-yl)acetamide]
27 | ≤ 0.01 | – | NS(=O)(=O)c1cc(NC(=O)Cc2ccccc2Cl)cc2nn(CC3CCCCC3)cc12 [Compound 32-A, 2-(2-chlorophenyl)-N-(2-(cyclohexylmethyl)-4-sulfamoyl-2H-indazol-6-yl)acetamide]
28 | 0.01 to 0.05 | – | NS(=O)(=O)c1cc(NC(=O)Cc2ccccc2Cl)cc2c1cnn2CC1CCCCC1 [Compound 32-B, 2-(2-chlorophenyl)-N-(1-(cyclohexylmethyl)-4-sulfamoyl-1H-indazol-6-yl)acetamide]
29 | ≤ 0.01 | – | NS(=O)(=O)c1cc(NC(=O)Cc2ccccc2Cl)cc2nn(CCC3CC3)cc12 [Compound 33, 2-(2-chlorophenyl)-N-(2-(2-cyclopropylethyl)-4-sulfamoyl-2H-indazol-6-yl)acetamide]
30 | 0.01 to 0.05 | – | NS(=O)(=O)c1cc(NC(=O)Cc2ccccc2Cl)cc2nn(Cc3ccc(O)cc3)cc12 [Compound 34, 2-(2-chlorophenyl)-N-(2-(4-hydroxybenzyl)-4-sulfamoyl-2H-indazol-6-yl)acetamide]
31 | 0.01 to 0.05 | – | COc1ccccc1Cn1ncc2c(S(N)(=O)=O)cc(NC(=O)Cc3ccccc3Cl)cc21 [Compound 37-B, 2-(2-chlorophenyl)-N-(1-(2-methoxybenzyl)-4-sulfamoyl-1H-indazol-6-yl)acetamide]
32 | 0.01 to 0.05 | – | CN(C)c1cccc(Cn2cc3c(S(N)(=O)=O)cc(NC(=O)Cc4ccccc4Cl)cc3n2)c1 [Compound 38, 2-(2-chlorophenyl)-N-(2-(3-(dimethylamino)benzyl)-4-sulfamoyl-2H-indazol-6-yl)acetamide]
33 | 0.01 to 0.05 | – | COc1cnccc1Cn1cc2c(S(N)(=O)=O)cc(NC(=O)Cc3ccccc3Cl)cc2n1 [Compound 39, 2-(2-chlorophenyl)-N-(2-((3-methoxypyridin-4-yl)methyl)-4-sulfamoyl-2H-indazol-6-yl)acetamide]

Row | Molecule | IC50 (class symbols) [µM] | IC50 (numeric values) [µM]
34 | 2-(2-chlorophenyl)-N-(1-(2-hydroxyethyl)-4-sulfamoyl-2H-indazol-6-yl)acetamide [Compound 27-B] | 0.05 to 0.2 | –
